Read-outs that look alike come from different tables or passages of the source.
What was measured:
band 3 [1] = target: T1, band 3 (Homo sapiens, UniProt P02730); assay: 36Cl exchange flux inhibition in red blood cells, Dixon plots; type: cell-based; conditions: for Kd: read-out: Average KoI (SE)
T1 sequence (P02730 1-911): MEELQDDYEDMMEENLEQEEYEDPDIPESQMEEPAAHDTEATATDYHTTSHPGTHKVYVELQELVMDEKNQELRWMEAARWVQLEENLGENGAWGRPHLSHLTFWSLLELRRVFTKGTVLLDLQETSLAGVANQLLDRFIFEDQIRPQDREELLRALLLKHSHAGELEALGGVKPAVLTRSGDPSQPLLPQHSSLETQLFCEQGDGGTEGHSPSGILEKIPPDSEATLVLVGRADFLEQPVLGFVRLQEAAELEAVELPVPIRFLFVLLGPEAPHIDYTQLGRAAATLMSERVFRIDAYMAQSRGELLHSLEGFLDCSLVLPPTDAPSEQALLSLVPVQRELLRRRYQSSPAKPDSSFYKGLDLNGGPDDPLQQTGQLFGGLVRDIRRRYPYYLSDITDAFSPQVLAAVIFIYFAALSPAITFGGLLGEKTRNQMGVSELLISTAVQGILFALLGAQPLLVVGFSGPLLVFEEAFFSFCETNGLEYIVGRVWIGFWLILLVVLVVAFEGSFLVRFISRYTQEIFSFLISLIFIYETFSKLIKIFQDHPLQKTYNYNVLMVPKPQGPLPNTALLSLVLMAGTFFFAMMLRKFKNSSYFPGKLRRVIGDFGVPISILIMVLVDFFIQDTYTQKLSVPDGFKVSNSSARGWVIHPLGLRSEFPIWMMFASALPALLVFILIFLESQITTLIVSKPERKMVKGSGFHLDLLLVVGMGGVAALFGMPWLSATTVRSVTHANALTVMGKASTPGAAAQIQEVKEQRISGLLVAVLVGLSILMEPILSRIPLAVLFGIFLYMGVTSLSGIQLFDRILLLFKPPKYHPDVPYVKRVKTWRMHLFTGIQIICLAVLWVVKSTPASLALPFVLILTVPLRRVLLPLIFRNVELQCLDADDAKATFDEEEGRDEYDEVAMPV

band 3 [2] = target: T1, band 3; conditions: cited from earlier work
[3] = exp 86, pHo 11.6, sucrose, Clo 30 mM
[4] = exp 86, pHo 11.6, sucrose, Clo 200 mM
[5] = exp N223, pHo 7.2, citrate, Clo 1.05 mM
[6] = exp N223, pHo 7.2, citrate, Clo 2.07 mM
[7] = exp N223, pHo 7.2, citrate, Clo 145 mM
[8] = exp N225, pHo 7.2, citrate, Clo 2.07 mM
[9] = exp N225, pHo 7.2, citrate, Clo 4.14 mM
[10] = exp N225, pHo 7.2, citrate, Clo 130 mM

For [I-].[K+] [iodide, potassium iodide], the “ID50 for iodide in the medium with low Cl- concentration” value (“ID50 for iodide in the medium” for short) (band 3 [1]; exp 85, pHo 7.2, 0°C, Hepes, Cli 133 mM, low Clo 0.3 mM) was 1.80 mM, the “ID50 for iodide in the medium” value (band 3 [1]; exp 86, pHo 11.6, 0°C, CAPS, Cli 295 mM, low Clo 30 mM) was 63.3 mM and the “DS·Clo (Dixon slope times [Clo])” value (band 3 [1]; [3]) was 0.2098. For the same molecule, the “Dixon slope (DS) for Io inhibition of Cl- exchange” value (band 3 [1]; [3]) was 0.00699, the “High/low: DS·Clo at the highest [Clo] divided by that at the given [Clo]” value (band 3 [1]; [3]) was 1.12 and the “DS·Clo (Dixon slope times [Clo])” value (band 3 [1]; [4]) was 0.2354. For the same molecule, the “Dixon slope (DS) for Io inhibition of Cl- exchange” value (band 3 [1]; [4]) was 0.00118, the “ID50 for iodide in the medium” value (band 3 [1]; exp 86, pHo 12.4, 0°C, CAPS, Cli 295 mM, low Clo 30 mM) was 88.5 mM and the “DS·Clo (Dixon slope times [Clo])” value (band 3 [1]; exp 86, pHo 12.4, Clo 30 mM) was 0.3617. The “Dixon slope (DS) for Io inhibition of Cl- exchange” value (band 3 [1]; exp 86, pHo 12.4, Clo 30 mM) was 0.01206, the “High/low: DS·Clo at the highest [Clo] divided by that at the given [Clo]” value (band 3 [1]; exp 86, pHo 12.4, Clo 30 mM) was 1.08 and the “DS·Clo (Dixon slope times [Clo])” value (band 3 [1]; exp 86, pHo 12.4, Clo 200 mM) was 0.3918. For the same molecule, the “Dixon slope (DS) for Io inhibition of Cl- exchange” value (band 3 [1]; exp 86, pHo 12.4, Clo 200 mM) was 0.001959, the “ID50 for iodide in the medium” value (band 3 [1]; exp 87, pHo 11.9, 0°C, CAPS, Cli 294 mM, low Clo 30 mM) was 83.8 mM and the “ID50 for iodide in the medium” value (band 3 [1]; exp 87, pHo 12.4, 0°C, CAPS, Cli 294 mM, low Clo 30 mM) was 92.5 mM. The “DS·Clo (Dixon slope times [Clo])” value (band 3 [1]; exp 87, pHo 12.4, Clo 30 mM) was 0.3492, the “Dixon slope (DS) for Io inhibition of Cl- exchange” value (band 3 [1]; exp 87, pHo 12.4, Clo 30 mM) was 0.01164 and the “High/low: DS·Clo at the highest [Clo] divided by that at the given [Clo]” value (band 3 [1]; exp 87, pHo 12.4, Clo 30 mM) was 0.81. For the same molecule, the “DS·Clo (Dixon slope times [Clo])” value (band 3 [1]; exp 87, pHo 12.4, Clo 200 mM) was 0.2824, the “Dixon slope (DS) for Io inhibition of Cl- exchange” value (band 3 [1]; exp 87, pHo 12.4, Clo 200 mM) was 0.001412 and the “ID50 for iodide in the medium” value (band 3 [1]; exp 89, pHo 11.9, 0°C, CAPS, Cli 304 mM, low Clo 30 mM) was 91.8 mM. For the same molecule, the “ID50 for iodide in the medium” value (band 3 [1]; exp 89, pHo 12, 0°C, No buffer, Cli 304 mM, low Clo 30 mM) was 128.5 mM, the “DS·Clo (Dixon slope times [Clo])” value (band 3 [1]; [5]) was 0.0854 and the “Dixon slope (DS) for Io inhibition of Cl- exchange” value (band 3 [1]; [5]) was 0.081. For the same molecule, the “High/low: DS·Clo at the highest [Clo] divided by that at the given [Clo]” value (band 3 [1]; [5]) was 3.96, the “DS·Clo (Dixon slope times [Clo])” value (band 3 [1]; [6]) was 0.1048 and the “Dixon slope (DS) for Io inhibition of Cl- exchange” value (band 3 [1]; [6]) was 0.0506. For the same molecule, the “High/low: DS·Clo at the highest [Clo] divided by that at the given [Clo]” value (band 3 [1]; [6]) was 3.22, the “DS·Clo (Dixon slope times [Clo])” value (band 3 [1]; [7]) was 0.338 and the “Dixon slope (DS) for Io inhibition of Cl- exchange” value (band 3 [1]; [7]) was 0.00233. For the same molecule, the “DS·Clo (Dixon slope times [Clo])” value (band 3 [1]; [8]) was 0.0724, the “Dixon slope (DS) for Io inhibition of Cl- exchange” value (band 3 [1]; [8]) was 0.0349 and the “High/low: DS·Clo at the highest [Clo] divided by that at the given [Clo]” value (band 3 [1]; [8]) was 3.66. For the same molecule, the “DS·Clo (Dixon slope times [Clo])” value (band 3 [1]; [9]) was 0.0907, the “Dixon slope (DS) for Io inhibition of Cl- exchange” value (band 3 [1]; [9]) was 0.0219 and the “High/low: DS·Clo at the highest [Clo] divided by that at the given [Clo]” value (band 3 [1]; [9]) was 2.92. For the same molecule, the “DS·Clo (Dixon slope times [Clo])” value (band 3 [1]; [10]) was 0.2652, the “Dixon slope (DS) for Io inhibition of Cl- exchange” value (band 3 [1]; [10]) was 0.00204 and the “1/R, ratio of dissociation constants alkaline/neutral state” value (band 3 [1]; our value) was 69. For the same molecule, the “apparent ID50 for I- as an inhibitor of Cl- exchange” value (band 3 [1]; pH 10.6, 1.65 mM [Clo]) was 23.6 ± 2.1 mM, the “y intercept of ID50 for Io vs [Clo] (should give KoI)” value (band 3 [1]; pHi and pHo 7.2, 0°C, Cli ~150 mM, media with 5 mM Hepes, Fig. 5) was 2.0 ± 0.2 mM and the “y intercept of Dixon slope for Io inhibition vs 1/[Clo]” value (band 3 [1]; pHo 7.2, 25 mM K3citrate plus sucrose replacing Cl-, Fig. 4B) was 0.0017 kg Hb·s·mmol-1·mM-1. For the same molecule, the “y intercept of Dixon slope for Io inhibition vs 1/[Clo]” value (band 3 [1]; pHo 7.2, sucrose replacing Clo, Fig. 4A) was 0.006 kg Hb·s·mmol-1·mM-1, the Kd (band 3 [1]; pHo 7.2, 0°C) was 0.83 mM and the Kd (band 3 [1]; pHo 8.0, 0°C) was 0.45 mM. It also gave a Kd (band 3 [1]; pHo 8.5, 0°C) of 1.01 mM, a Kd (band 3 [1]; pHo 8.66, 0°C) of 1.26 mM and a Kd (band 3 [1]; pHo 9.2, 0°C) of 2.6 mM. For the same molecule, the Kd (band 3 [1]; pHo 9.9, 0°C) was 5.63 mM, the Kd (band 3 [1]; pHo 10, 0°C) was 6.48 mM and the Kd (band 3 [1]; pHo 10.6, 0°C) was 18.4 mM. It also gave a Kd (band 3 [1]; pHo 10.7, 0°C) of 16.4 mM, a Kd (band 3 [1]; pHo 11.6, 0°C) of 35.8 mM and a Kd (band 3 [1]; pHo 11.9, 0°C) of 75.6 mM. The Kd (band 3 [1]; pHo 12.4, 0°C) was 73.4 mM, the “R = K++I/K+I, ratio of I- dissociation constants for neutral and alkaline forms” value (band 3 [1]; two-titratable-site fit to KoI data) was 0.0145 and the “transport rate relative to Cl-” value (band 3 [2]; 0°C, pH 7.4, ref Dalmark and Wieth, 1972) was 260 times slower. The “1/R, ratio of dissociation constants alkaline/neutral state” value (band 3 [2]; ref Bjerrum (1992)) was 35.8 and the “R = K++I/K+I, ratio of I- dissociation constants for neutral and alkaline forms” value (band 3 [2]; ref Bjerrum (1992)) was 0.0279.

— paper PMC2219267 (The Journal of General Physiology, 1996)
